# Data taken from US12649980B2, “Three-dimensional surface for protein and small molecule microarrays” (The Johns Hopkins University, priority 2019, dated 2026).
# Columns and labels:
# GLUT3 = GLUT3 (Homo sapiens, UniProt P11169); test: biotin-RgA pull-down assay, GLUT3; conditions: lysate of HEK293T overexpressing GLUT3, Western blot
# Description: (§4) It was further determined whether RgA is specific for GLUT1 using a pair of isogenic cell lines.
# (§5) GLUT1 or other isoforms overexpression HEK293T cells were washed once in buffer A (10 mM Tris-HCl, 150 mM KCl, 5 mM MgCl2, 1 mM EGTA, pH 7.4). To extract GLUT1 or isoforms protein, cells were mixed in buffer C (10 mM Tris-HCl, 150 mM KCl, 5 mM MgCl2, 1% DDM, 5% glycerol, 1 mM EGTA, protease inhibitor, pH 7.4) and incubated on ice for 1 h with frequent mixing. The supernatant was collected by centrifugation at 17,000 g for 10 min at 4° C., and then diluted four-fold in buffer A plus 5% glycerol to reduce the concentration of DDM. The diluted supernatant was quantified by protein assay kit and pre-incubated with streptavidin agarose beads at 4° C. for 30 min to remove the endogenous streptavidin-binding proteins. The supernatant was collected by centrifugation at 2,000 rpm for 1 min at 4° C., and diluted to 10 mg/mL for pull-down experiment. For a typical biotin pull- down reaction, 300 μL of supernatant was pretreated with competitor or equal volume of DMSO (as noted hereinabove) for 30 min, before the addition of RgA biotin probe or DMSO (as noted hereinabove). After incubation at 4° C. for 1 h with frequent mixing, 30 μL of streptavidin agarose beads in buffer A was added, and incubation was continued for 2 h. […]
# A549 cells = test: [3H]-2DG uptake assay in A549 cells; assay type: cell-based, human; conditions: 10 min incubation with compound, mean ± s.d., n = 3
# Description: To determine which of the 17 rapafucin hits inhibited the transporter activity of GLUT1, an orthogonal glucose uptake assay using 2-deoxy-D-[3H] glucose ([3H]-2DG), a nonhydrolyzable, radioactive glucose analog, was employed. Each hit was separately incubated with A549 cells for 10 min before the amount of [3H]-2DG taken up by the cells was measured using scintillation counting. […] The effect of JW11-D2 on uptake of [3H]-2DG in human red blood cells that exclusively express GLUT1 was then determined. Helgerson and Carruthers, J. Biol. Chem. 1987, 262, 5464-5475. […] To further improve the potency of JW11-D2, a structure-activity relationship (SAR) study was performed by synthesizing 21 new analogs of JW11-D2 using different amino acid building blocks.
# (§1) The inhibitory activity of compounds on glucose transport was analyzed by measuring the cell uptake of [3H]-2DG as previously described. Ulanovskaya et al., Chem. Biol. 2011, 18, 222-230. Briefly, cells were washed twice and incubated in low-glucose medium for 10 min. Cells were added drugs and incubated for another 10 min before adding [3H]-2DG. After 10 min incubation with [3H]-2DG, cells were washed twice and lysed with 0.2 N NaOH plus 0.2% SDS. The cell lysate was transferred to a new tube containing 1 mL of optiphase supermix. Glucose uptake was quantified with a scintillation counter.
# GLUT4 = GLUT4 (Homo sapiens, UniProt P14672); test: biotin-RgA pull-down assay, GLUT4; conditions: lysate of HEK293T overexpressing GLUT4, Western blot
# Description: as §4, §5
# GLUT1 [1] = target: T1, GLUT1 (Homo sapiens, UniProt P11166); test: biotin-RgA pull-down and biotin probe competition binding assay, GLUT1; conditions: lysate of HEK293T overexpressing GLUT1, Western blot
# T1 construct: The full-length human SLC2A1, SLC2A3, and SLC2A4 genes were PCR amplified and inserted into pLenti6M vector 2; expressed in transfected cells
# T1 sequence (P11166 1-492): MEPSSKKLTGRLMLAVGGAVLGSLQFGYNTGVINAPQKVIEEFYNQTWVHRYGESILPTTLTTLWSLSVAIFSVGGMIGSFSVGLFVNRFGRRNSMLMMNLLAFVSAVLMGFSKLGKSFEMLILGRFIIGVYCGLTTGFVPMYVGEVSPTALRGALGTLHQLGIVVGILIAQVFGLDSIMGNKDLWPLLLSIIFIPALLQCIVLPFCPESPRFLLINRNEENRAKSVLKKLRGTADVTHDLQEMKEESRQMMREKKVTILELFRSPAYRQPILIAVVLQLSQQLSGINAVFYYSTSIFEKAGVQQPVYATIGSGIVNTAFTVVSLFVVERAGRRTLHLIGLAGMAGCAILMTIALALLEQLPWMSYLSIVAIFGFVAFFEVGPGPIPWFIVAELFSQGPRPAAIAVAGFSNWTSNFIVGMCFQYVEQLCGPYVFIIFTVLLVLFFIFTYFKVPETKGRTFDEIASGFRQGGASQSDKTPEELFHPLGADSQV
# Description: Next, the binding affinity of RgA for GLUT1 was determined using a RgA biotin pull-down assay. A biotin-RgA conjugate was synthesized by tethering the biotin moiety through carbon:carbon double bond in the FKBP-binding domain of RgA (FIG. 13). […] Using the biotin-RgA conjugate, a pulldown experiment with cell lysate containing detergent-solubilized GLUT1 protein prepared from HEK293T cells overexpressing GLUT1 was performed, followed by Western blot analysis with a GLUT1-specific antibody.
# The estimation of Kd value for RgA was determined with the biotin probe competition binding assay. […] After western blot, band intensities were quantified by densitometry analysis using Image J software. The assay was repeated three times. GraphPad Prism (v4.03) software was used to determine apparent Kd value for RgA using a nonlinear regression.
# GLUT1 [2] = target: T1, GLUT1; test: rapafucin 2D microarray screen with GLUT1-containing cell lysate; assay type: binding; conditions: signal-to-background ratio, 2D surface, same lysate and conditions
# Text: (§2) Once stock solutions of the rapafucin library were arrayed on the 2D or 3D surface and most of solvent carrier was evaporated, the crosslinking reaction was initiated by irradiating the surfaces with 365-nm wavelength UV light. Kawatani and Osada, Medchemcomm 2014, 5, 277-287. […] To screen for GLUT1-interacting rapafucins, GLUT1 was stably overexpressed in HEK293T cells and generated cell lysates containing detergent-solubilized recombinant GLUT1 (FIG. 10). The GLUT1-containing cell lysate was then incubated on both 2D and 3D rapafucin microarrays. After washing the slides to remove unbound proteins, the bound GLUT1 protein was detected with anti-GLUT1 antibodies, followed by visualization with Cy5-labeled secondary antibodies using a microarray scanner. Rapafucins were scored as positive hits when the corresponding SBR was greater than 3. Based on this criterion, a total of 17 rapafucin hits and one positive control BAY-876, a specific GLUT1 inhibitor, Siebeneicher et al., ChemMedChem 2016, 11, 2261-2271, were identified on the 3D rapafucin microarray. In contrast, only one hit (WL13-F11, also among the 17 hits identified from the 3D rapafucin microarray) was identified on the 2D rapafucin microarray (Table 1, FIG. 11).
# (§3) In the optimization experiments, the slides were incubated with 50 nM purified recombinant FKBP12 for 1 hour, while in the GLUT1 screening, 10 mg/mL of cell lysate containing DDM-solubilized GLUT1 from GLUT1 overexpressed HEK293T was incubated for 1 hour. Successively, primary antibody and CY5 labeled secondary antibody were added for 1 hour. The chips were washed in buffer A for 5 mins 3 times after the sample and antibodies incubation. After centrifugation, the dried chips were scanned by a microarray scanner (Genepix, US) at 635-nm wavelength. The final result was analyzed by GenePix software.
# GLUT1 [3] = target: T1, GLUT1; test: rapafucin 3D microarray screen with GLUT1-containing cell lysate; assay type: binding; conditions: signal-to-background ratio, 3D surface, lysate of GLUT1-overexpressing HEK293T; hit if SBR > 3
# Text: as §2
# The amine substrates (Arrayit, SMM) were immerged in a mixture of 2-bromoisobutyryl bromide (BIBB, 0.1 mM, as initiator) and propionyl bromide (10 mM, as horizontal spacer) with triethylamine (15 mM) in DCM for 4 hours. A degassed polymerization reaction mixture, containing copper (II) chloride dihydrate (CuCl2, 4 mmol), 2,2′-bipyridine (2 mmol), 75 mmol monomers mixture of 2-(dimethylamino)ethyl methacrylate (DMAEMA) and poly(ethylene glycol) methacrylate (PEGMA Mn 360) in 500 mL Milli-Q/MeOH, was mixed with freshly made ascorbic acid (4 mmol). The mixture was applied to 50 slides for 6 hours under the argon atmosphere for the surface-initiated polymerization. A gradient ratio of PEGMA and DMAEMA was set, including 10:0, 8:2, 5:5, 2:8 and 0:10 for an optimization purpose. The terminals of the brushes were further functionalized by N,N′-disuccinimidyl carbonate (DSC, 10 mM) and 4-dimethylaminopyridine (DMAP,10 mM) in DMF overnight to form succinimidyl carbonate intermediate, and, successively, diazirine linker 1 (10 mM) and N,Ndiisopropylethylamine (DIPEA, 50 mM) in DMF for 2 hours to couple the photoaffinity linker in dark at room temperature. At the end, the substrates were immerged in a 50 mM ethanolamine in DMF to block the residual carboxylic moiety. The slides were thoroughly washed by DMF, EtOH and DCM and dried in a fuming cupboard and ready for spotting.
# 10 mM of rapafucins in DMSO from the library were spotted onto the slides with a high-precision microarrayer (Nanoprint, Arrayit, CA) for a desired pattern in dark, which was loaded with 16 100-μm diameter micro-spotting pins. The pin heads were thoroughly washed and sonicated in ethanol and dried for 4 times under a compassed air between each sample loading. After overnight evaporation, the slides were exposed to 365-nm wavelength UV irradiation for 4 J/cm^2 by CL-1000L UV crosslinker (UVP, CA) for rapafucins covalent immobilization. The slides were ultrasonic cleaned successively in DCM, MeOH and Milli-Q water and stored in a −20° C. freezer.
# as §3
# DLD1 GLUT1 KO = test: [3H]-2DG uptake in DLD1 GLUT1 knockout cells; assay type: cell-based; conditions: for inhibitory activity in GLUT1 knock out cells: DLD-1 GLUT1 knock out versus wild type
# Description: as §1
# DLD1 WT = test: [3H]-2DG uptake in DLD1 WT cells; assay type: cell-based
# Description: as §1
# [4] = system: glutathione S-transferases; conditions: Yamada and Kaplowitz 1980; cited from earlier work
# Chain of GLUT4 (P14672 whole entry): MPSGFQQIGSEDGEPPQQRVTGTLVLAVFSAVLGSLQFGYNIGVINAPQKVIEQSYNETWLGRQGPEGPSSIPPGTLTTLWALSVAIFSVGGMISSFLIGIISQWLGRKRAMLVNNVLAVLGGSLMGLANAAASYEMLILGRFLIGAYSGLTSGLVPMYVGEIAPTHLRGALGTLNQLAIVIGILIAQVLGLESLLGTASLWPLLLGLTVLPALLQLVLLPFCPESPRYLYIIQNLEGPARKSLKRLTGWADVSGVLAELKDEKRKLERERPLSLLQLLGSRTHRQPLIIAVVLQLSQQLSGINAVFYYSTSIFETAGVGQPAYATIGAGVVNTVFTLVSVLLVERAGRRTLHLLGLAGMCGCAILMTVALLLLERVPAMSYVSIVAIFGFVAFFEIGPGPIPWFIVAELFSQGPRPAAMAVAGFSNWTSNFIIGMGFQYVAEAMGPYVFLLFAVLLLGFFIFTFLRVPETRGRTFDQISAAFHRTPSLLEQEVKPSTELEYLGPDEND
# Chain of GLUT3 (P11169 whole entry): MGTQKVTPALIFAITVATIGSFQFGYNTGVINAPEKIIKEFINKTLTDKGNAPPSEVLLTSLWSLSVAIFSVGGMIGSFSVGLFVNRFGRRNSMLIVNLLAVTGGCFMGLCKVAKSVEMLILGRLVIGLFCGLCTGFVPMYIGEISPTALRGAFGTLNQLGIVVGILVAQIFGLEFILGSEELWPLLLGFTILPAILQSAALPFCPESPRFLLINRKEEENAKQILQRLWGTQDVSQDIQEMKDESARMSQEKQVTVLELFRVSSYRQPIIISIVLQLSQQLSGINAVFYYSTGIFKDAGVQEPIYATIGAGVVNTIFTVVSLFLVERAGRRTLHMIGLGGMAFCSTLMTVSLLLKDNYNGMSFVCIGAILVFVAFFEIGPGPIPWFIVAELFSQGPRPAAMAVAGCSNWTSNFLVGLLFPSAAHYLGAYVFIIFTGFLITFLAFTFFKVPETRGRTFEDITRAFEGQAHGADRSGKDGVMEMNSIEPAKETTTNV
IC50 (A549 cells) [nM],2D SBR (GLUT1 [2]),3D SBR (GLUT1 [3]),SMILES,other results
> 3000,<3.0,7.9 ± 2.6,CCC(C)C1C(=O)NC(Cc2ccccc2)C(=O)N(C)CCC=CC(=O)OCC(C)(C)C(=O)C(=O)N2CCCCC2C(=O)OC(CCc2ccc(OC)c(OC)c2)c2cccc(c2)OCC(=O)N(C)CC(=O)NC(Cc2ccc(F)cc2)C(=O)N1C (stereo not shown) [HP05-F5],–
> 3000,<3.0,6.4 ± 1.8,COc1ccc(CC[C@H]2OC(=O)[C@@H]3CCCCN3C(=O)C(=O)C(C)(C)COC(=O)C=CCCN(C)C(=O)[C@H](Cc3ccccc3)N(C)C(=O)CCNC(=O)CN(C)C(=O)[C@H](Cc3ccc(O)cc3)NC(=O)COc3cccc2c3)cc1OC [WL05-D8],–
> 3000,<3.0,3.9 ± 0.3,CCCC[C@H]1C(=O)N2CCC[C@@H]2C(=O)N(C)CCC=CC(=O)OCC(C)(C)C(=O)C(=O)N2CCCC[C@H]2C(=O)O[C@H](CCc2ccc(OC)c(OC)c2)c2cncc(c2)OCC(=O)N(C)CC(=O)N[C@@H](Cc2ccccc2)C(=O)N1C [WL11-G9],–
> 3000,<3.0,4.8 ± 0.5,CCCC[C@H]1C(=O)N2CCC[C@@H]2C(=O)N(C)CCC=CC(=O)OCC(C)(C)C(=O)C(=O)N2CCCC[C@H]2C(=O)O[C@H](CCc2ccc(OC)c(OC)c2)c2cccc(c2)OCC(=O)N(C)CC(=O)N[C@H](Cc2ccc(NC(=O)OC(C)(C)C)cc2)C(=O)N1C [WL11-E7],–
> 3000,<3.0,5.1 ± 0.7,COc1ccc(CC[C@H]2OC(=O)[C@@H]3CCCCN3C(=O)C(=O)C(C)(C)COC(=O)C=CCCN(C)C(=O)CNC(=O)CN(C)C(=O)[C@H](Cc3ccc(O)cc3)NC(=O)[C@@H](Cc3ccccc3)N(C)C(=O)COc3cccc2c3)cc1OC [WL03-G11],–
> 3000,<3.0,3.4 ± 1.4,CCCC[C@H]1C(=O)N[C@@H](Cc2ccccc2)C(=O)N(C)CCC=CC(=O)OCC(C)(C)C(=O)C(=O)N2CCCC[C@H]2C(=O)O[C@H](CCc2ccc(OC)c(OC)c2)c2cccc(c2)NC(=O)CCC(=O)N(C)[C@H](Cc2ccccc2)C(=O)N[C@@H](Cc2ccc(F)cc2)C(=O)N1C [HP05-A9],–
–,–,–,"C=C1[C@@H](C)[C@H]2[C@H](Cc3ccccc3)NC(=O)[C@]23OC(=O)/C=C/[C@H](O)CCC[C@@H](C)C/C=C/[C@H]3[C@@H]1O [Cytochalasin B, cytochalasin B]",EC50 (DLD1 GLUT1 KO; DLD1 GLUT1 knockout): 390 ± 32.7 nM; inhibitory activity in GLUT1 knock out cells (DLD1 GLUT1 KO): maintained its inhibitory activity; EC50 (DLD1 WT; DLD1 wild type): 545 ± 40.5 nM
> 3000,<3.0,8.8 ± 2.0,COc1ccc(CC[C@H]2OC(=O)[C@@H]3CCCCN3C(=O)C(=O)C(C)(C)COC(=O)C=CCCN(C)C(=O)[C@H]3CCCN3C(=O)[C@H](C(C)C)N(C)C(=O)[C@H](Cc3ccc([N+](=O)[O-])cc3)NC(=O)CN(C)C(=O)COc3cccc2c3)cc1OC [WL12-G5],–
–,<3.0,3.2 ± 0.74,Cc1c(NC(=O)c2cc(C(N)=O)nc3cc(F)ccc23)c(C(F)(F)F)nn1Cc1ccc(C#N)cc1 [BAY-876],"inhibitory activity in GLUT1 knock out cells (DLD1 GLUT1 KO): lost its inhibitory activity; EC50 (DLD1 GLUT1 KO; Homo sapiens, DLD-1, DLD1 GLUT1 knockout): > 1000 nM; EC50 (DLD1 WT; Homo sapiens, DLD-1, DLD1 wild type): 8 ± 1.1 nM"
–,–,–,C=C(CC)C(=O)c1ccc(OCC(=O)O)c(Cl)c1Cl [ethacrynic acid],proportion of bound ethacrynic acid that was bound covalently [4]: 13.5%

SMILES,IC50 (A549 cells) [nM],2D SBR (GLUT1 [2]),3D SBR (GLUT1 [3]),other results
CCC(C)C1C(=O)NCC(=O)N(C)CCC(SCCCSCC(=O)NCCOCCOCCNC(=O)CCCCC2SCC3NC(=O)NC32)CC(=O)OCC(C)(C)C(=O)C(=O)N2CCCCC2C(=O)OC(CCc2ccc(OC)c(OC)c2)c2cccc(c2)NC(=O)CCC(=O)N(C)C(CC(C)C)C(=O)NC(Cc2ccccc2)C(=O)N1C (stereo not shown) [biotin-RgA],211,–,–,pulldown of GLUT3 (GLUT3): able to pull down both GLUT3 and GLUT4; pulldown of GLUT4 (GLUT4): able to pull down both GLUT3 and GLUT4; pulldown of GLUT1 (GLUT1 [1]): capable of pulling down GLUT1
